Data on five compounds can be found in US20220125748A1, “HISTONE ACETYLTRANSFERASE (HAT) REGULATORS AND USES THEREOF” (The Trustees of Columbia University in the City of New York, priority 2019, published 2022).

What is called EC50 is the concentration giving half of the maximal effect. One may read the half-life as the time in which the quantity being followed falls by half. Low values mean rapid decline, high ones slow decline. One may read the microsomal CLint as a measure of how fast metabolising enzymes remove a compound, apart from limits set by blood flow.

Data set [1] has as its target p300 (Homo sapiens, UniProt Q09472). As to the kind of experiment: In vitro acetylation assay (p300, histone 3 Lys 18 / Lys 27, western blot). As to conditions: compound in DMSO; for EC50: read-out: H3-Lys 18 EC50; for H3-Lys 27 EC50 / H3-Lys 27 IC50: Lys 27 of histone 3. The format is biochemical. As for the experimental part: The aim of the in vitro acetylation assay is to measure the enzymatic activity of the various compounds towards p300. Results are provided in FIG. 3A to FIG. 7B for average values of lysine residue acetylation (continuous line) and their standard error range measured in the absence of compound and DMSO, wherein “n” represents the number of replicates.
First, the drug is prepared:
Second, dilute p300 in AM1 buffer to a concentration of 40 ng/μL (final concentration in the reaction 20 ng/μL). This is accomplished by diluting 1 μL of p300 (at 0.4 μg/μL) into […] of AM1 buffer.
Third, prepare the Master Mix. Prepare the Master Mix in low protein binding tubes (ThermoFisher Cat. No. 90410), 20 μL system.
Incubate reactions at 30° C. for 30 minutes.
Incubate reactions at 30° C. for 1 hour.
Fourth, perform the western blot assay. • Add 6.7 μL of Laemmli Sample Buffer 4× (Bio-Rad Laboratories Cat. No. 161-0737) for each reaction and boil samples at 95° C. for 5 min. • Charge 10 μL for each sample in 2 Tris Glycine 4-15% gels (Bio-Rad Laboratories Cat. No. 456-1086). Running Buffer: Tris-Glycine 1× (pour in the cell up to the writing “2 gels”). • Run at 90 V for 1 hour (until the gel front reaches the green line of cell). • Semi-dry transfer with Trans-Blot® Turbo™ Blotting System from Bio-Rad Laboratories (Trans-Blot® Turbo™ RTA midi PVDF transfer kit Cat. No1704275). • Activate PVDF membrane in methanol for 5 minutes and then wet in Trans-Blot® Turbo™ transfer buffer. • Wet stacks in transfer buffer. • Transfer at 23 V 1.3 A for 7 minutes. • Blocking buffer: 5% Non-Fat milk in TBST (tween 0.1%) 1 hour at room temperature. • Cut the membranes to get Ac-His 3 at 17 kDa and p300 at 300 kDa. • Incubate with primary antibodies overnight at 4° C. • The day after, make 3 washes in TBST (Tween 0.1%) of 10 minutes. • Incubate with secondary antibody at room temperature for 1 hour. • Make 3 washes in TBST (Tween 0.1%) of 5 minutes. • Incubate membranes with ECL (SuperSignal West Dura Extended Duration Substrate from ThermoFisher) for 5 minutes at room temperature. • Acquire the image with ChemiDoc Odyssey Fc 2 minutes.
To detect total H3 (loading control), strip the membranes with Restore™ Western Blot Stripping Buffer according to the manufacturer protocol.
Various compounds were tested for enzymatic activity with respect to Lys 18 and Lys 27 of histone 3. EC50 is indicated for activators and IC50 for inhibitors respectively.
A general note: In western blotting, separated proteins are transferred to a membrane and probed.

Data set [2] is described as follows: Stability in human liver microsomes. The format is in vitro ADME. As to conditions: both sexes. As for the experimental part: Compounds were tested for stability in human liver microsomes.
Experimental Procedure • Mixed-gender human liver microsomes (Lot #1210347) were purchased from XenoTech. The reaction mixture, minus NADPH, was prepared as described below. The test article was added into the reaction mixture at a final concentration of 1 μM. The control compound, testosterone, was run simultaneously with the test articles in a separate reaction. An aliquot of the reaction mixture (without cofactor) was equilibrated in a shaking water bath at 37° C. for 3 minutes. The reaction was initiated by the addition of the cofactor, and the mixture was incubated in a shaking water bath at 37° C. Aliquots (100 μL) were withdrawn at 0, 10, 20, 30, and 60 minutes. Test article and testosterone samples were immediately combined with 400 μL of ice-cold 50/50 acetonitrile (ACN)/H2O containing 0.1% formic acid and internal standard to terminate the reaction. […] Half-lives and clearance were calculated using GraphPad software, fitting to a single-phase exponential decay equation. […]
Note (a): When the calculated half-life is longer than the duration of the experiment, the half-life is expressed as being greater than the longest incubation time. Note (b): Intrinsic clearance (CLint) was calculated based on CLint=k/P, where k is the elimination constant and P is the protein concentration in the incubation.

For data set [3], the system named is hippocampal slices from WT mice perfused with oTau. The data set can be described thus: oTau-induced LTP deficit in hippocampal slices. An excerpt: against tau induced synaptic dysfunction. Oligomeric tau caused a defect of LTP. YF2 was applied to hippocampal slices either alone or concurrently with oligomeric tau. […] FIG. 8 is a graph illustrating that YF2 rescues oTau-induced LTP deficits. LTP was impaired in hippocampal slices from WT mice perfused with oTau. The concurrent treatment with YF2 and oTau reestablished normal LTP. There was no impairment in slices treated with YF2 or vehicle. The horizontal solid bar represents oTau perfusion while the horizontal dashed bar represents drug treatment. The three arrows correspond to the theta-burst stimulation. Two-Way ANOVA Vehicle vs. oTau: F(1, 21)=21.32, p=0.0001; Vehicle vs. YF2: F(1, 21)=0.200, p=0.6593; Vehicle vs. YF2+oTau: F(1, 22)=0.3455, p=0.563; YF2 vs. oTau: F(1, 22)=13.72, p=0.0012; YF2 vs. YF2+oTau: F(1, 23)=0.00043, p=0.984; YF2+oTau vs. oTau: F(1, 23)=31.52, p<0.0001.

For data set [4], the system named is mice administered with oTau. The data set can be described thus: Contextual fear memory. As to conditions: YF2 plus oTau vs oTau, 24 hrs after the electric shock. The format is in vivo. An excerpt: A statistical significant difference is visible when comparing all groups during testing for contextual fear memory at 24 hrs after the electric shock (ANOVA among all groups: F(3, 53)=3.051 p=0.0364).

Data set [5] relates to mice administered with oTau. The data set can be described thus: 2 day radial arm water maze (RAWM), spatial short-term memory. The format is in vivo. As to conditions: oTau 500 nM, YF2 5 mg/kg. As for the experimental part:
Oligomeric tau caused a defect of spatial memory and associative memory. YF2 was injected in mice either alone or concurrently with oligomeric tau. The compound rescued the oligomeric tau induced defect in memory. […] The performance in the RAWM was impaired in mice administered with oTau (500 nM). […] The performance was not impaired when mice were treated with only YF2 or vehicle.

Setting [6] is: Lys 18 of histone 3, EC50 for activators.

Each structure is given as a SMILES string. Entries after “also recorded” stand apart in the source; their conditions may differ.

Chain of p300 (Q09472 whole entry, species assumed): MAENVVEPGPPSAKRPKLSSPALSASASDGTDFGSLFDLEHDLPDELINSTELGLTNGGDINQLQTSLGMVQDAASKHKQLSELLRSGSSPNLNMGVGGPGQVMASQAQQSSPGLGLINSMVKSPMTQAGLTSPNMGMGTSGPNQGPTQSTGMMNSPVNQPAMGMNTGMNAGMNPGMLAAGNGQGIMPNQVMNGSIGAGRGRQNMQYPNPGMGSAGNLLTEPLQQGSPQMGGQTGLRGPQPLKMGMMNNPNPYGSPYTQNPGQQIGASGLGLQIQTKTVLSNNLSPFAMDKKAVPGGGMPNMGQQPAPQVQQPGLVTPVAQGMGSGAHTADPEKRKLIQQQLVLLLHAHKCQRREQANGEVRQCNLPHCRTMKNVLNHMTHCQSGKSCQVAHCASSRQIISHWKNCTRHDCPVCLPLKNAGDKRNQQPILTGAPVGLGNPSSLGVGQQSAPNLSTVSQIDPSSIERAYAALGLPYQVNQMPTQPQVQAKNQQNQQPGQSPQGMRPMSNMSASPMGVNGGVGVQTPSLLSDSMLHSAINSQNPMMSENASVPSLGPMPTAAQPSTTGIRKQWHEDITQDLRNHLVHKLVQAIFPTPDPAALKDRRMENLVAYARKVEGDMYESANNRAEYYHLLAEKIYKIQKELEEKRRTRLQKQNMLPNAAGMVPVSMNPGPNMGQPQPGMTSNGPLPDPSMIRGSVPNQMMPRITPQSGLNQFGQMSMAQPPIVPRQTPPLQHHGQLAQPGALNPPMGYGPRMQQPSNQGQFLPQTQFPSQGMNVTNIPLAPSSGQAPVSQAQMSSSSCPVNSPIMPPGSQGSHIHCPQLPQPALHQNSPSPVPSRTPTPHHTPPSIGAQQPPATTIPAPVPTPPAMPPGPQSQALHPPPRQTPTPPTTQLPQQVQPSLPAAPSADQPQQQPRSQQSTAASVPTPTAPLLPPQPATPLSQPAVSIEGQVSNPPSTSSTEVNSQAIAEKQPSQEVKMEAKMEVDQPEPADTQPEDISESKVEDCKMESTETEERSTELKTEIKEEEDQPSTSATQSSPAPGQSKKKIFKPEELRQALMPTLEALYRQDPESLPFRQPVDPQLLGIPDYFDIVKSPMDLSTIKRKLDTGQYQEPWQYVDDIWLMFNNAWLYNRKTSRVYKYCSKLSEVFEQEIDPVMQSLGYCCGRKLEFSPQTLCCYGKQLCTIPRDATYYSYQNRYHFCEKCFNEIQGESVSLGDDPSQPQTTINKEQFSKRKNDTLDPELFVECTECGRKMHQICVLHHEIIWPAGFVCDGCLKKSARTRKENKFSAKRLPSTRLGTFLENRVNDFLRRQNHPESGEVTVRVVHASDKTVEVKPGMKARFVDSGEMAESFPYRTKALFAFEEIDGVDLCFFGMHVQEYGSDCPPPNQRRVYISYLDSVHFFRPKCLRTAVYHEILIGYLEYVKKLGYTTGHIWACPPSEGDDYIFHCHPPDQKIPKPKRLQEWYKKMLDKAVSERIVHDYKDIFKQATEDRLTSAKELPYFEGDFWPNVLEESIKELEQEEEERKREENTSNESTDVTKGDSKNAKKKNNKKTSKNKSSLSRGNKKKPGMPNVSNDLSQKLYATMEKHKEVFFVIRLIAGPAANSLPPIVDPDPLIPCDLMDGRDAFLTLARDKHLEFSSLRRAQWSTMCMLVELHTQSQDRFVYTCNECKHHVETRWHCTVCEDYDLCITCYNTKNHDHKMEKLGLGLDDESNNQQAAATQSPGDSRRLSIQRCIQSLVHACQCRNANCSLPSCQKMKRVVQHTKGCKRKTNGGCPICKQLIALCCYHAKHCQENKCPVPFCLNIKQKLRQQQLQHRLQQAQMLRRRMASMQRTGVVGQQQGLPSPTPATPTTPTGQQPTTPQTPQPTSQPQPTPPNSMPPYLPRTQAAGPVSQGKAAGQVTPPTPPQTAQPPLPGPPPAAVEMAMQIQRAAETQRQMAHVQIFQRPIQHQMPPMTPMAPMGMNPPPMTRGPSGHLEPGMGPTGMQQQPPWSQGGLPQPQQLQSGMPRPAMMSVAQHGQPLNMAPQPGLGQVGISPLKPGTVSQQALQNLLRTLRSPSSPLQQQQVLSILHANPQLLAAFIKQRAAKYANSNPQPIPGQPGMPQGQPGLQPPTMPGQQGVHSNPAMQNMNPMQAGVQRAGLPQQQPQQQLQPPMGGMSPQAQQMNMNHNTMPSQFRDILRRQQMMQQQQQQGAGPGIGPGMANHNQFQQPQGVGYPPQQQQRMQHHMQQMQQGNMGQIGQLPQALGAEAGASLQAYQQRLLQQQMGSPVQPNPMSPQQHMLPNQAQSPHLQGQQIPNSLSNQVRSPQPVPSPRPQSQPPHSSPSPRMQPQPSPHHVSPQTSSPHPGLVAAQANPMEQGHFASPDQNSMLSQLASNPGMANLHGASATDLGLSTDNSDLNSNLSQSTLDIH

For the compound `CCOc1cccc(OCCN2CCOCC2)c1C(C)Nc1ccc(O)c(C(F)(F)F)c1` (centres unmarked) [JF2], in data set [1] (setting [6]), the EC50 came out at 138 nM. The “H3-Lys 27 EC50” value in data set [1] (EC50 for activators) was “NO ACTIVITY”. For the same compound, in data set [1] (IC50 for inhibitors), the “H3-Lys 27 IC50” value is “NO ACTIVITY”.
For `FC(F)(F)c1cc(N2COc3ccccc3C2)ccc1Cl` [JF17], the EC50 in data set [1] (setting [6]) stood at 103 nM.
In the case of `CN(C)CCOc1cccc2c1C(=O)N(c1ccc(Cl)c(C(F)(F)F)c1)C2=O` [JF19], in data set [1] (setting [6]), the “H3-Lys 18 EC50” value is recorded as “NO ACTIVITY”. Besides, the “H3-Lys 18 IC50” value in data set [1] (Lys 18 of histone 3, IC50 for inhibitors) was “NO ACTIVITY”. In data set [1] (EC50 for activators), the “H3-Lys 27 EC50” value is given as “NO ACTIVITY”. Moreover, in data set [1] (IC50 for inhibitors), the “H3-Lys 27 IC50” value was “NO ACTIVITY”.
On to `C[C@]12CC[C@H]3[C@@H](CCC4=CC(=O)CC[C@@]43C)[C@@H]1CC[C@@H]2O` [Testosterone, testosterone], for which the half-life at 1 μM in data set [2] (pH 7.4, 1 μM, single-phase exponential decay fit) was 40.6 min. The compound also yielded a microsomal CLint at 1 μM in data set [2] (pH 7.4, CLint=k/P) of 34.1 µL/min/mg.
Turning to `CCOc1cccc(OCCN(C)C)c1C(=O)Nc1ccc(Cl)c(C(F)(F)F)c1` [YF2], the “LTP with compound alone” value in data set [3] (hippocampal slices treated with YF2 alone) is listed as “no impairment”. The “effect on oligomeric tau induced defect in long-term potentiation” value in data set [3] (hippocampal slices, concurrent treatment with YF2 and oTau) is “rescued the oligomeric tau induced defect in long-term potentiation; also recorded: rescues oligomeric-Tau (oTau)-induced LTP deficits”. In addition, the “contextual fear memory (freezing), oTau-induced deficit” value in data set [4] is on record as “rescues oTau-induced deficit in contextual fear memory; also recorded: rescues oTau-induced defects in contextual fear memory”. For the same compound, in data set [5], the “RAWM performance, oTau-induced deficit” value was “rescued the deficit; also recorded: rescues oTau-induced defects”.
